Measurements as given in paper PMC1940322, “The Effect of PPARα, PPARδ, PPARγ, and PPARpan Agonists on Body Weight, Body Mass, and Serum Lipid Profiles in Diet-Induced Obese AKR/J Mice” (PPAR Research, 2007).

Tests used:
[1] = tested on: fatty acid oxidation in mouse liver; experiment: Ex vivo fatty acid oxidation in liver homogenates (14C-CO2 capture); settings: liver extracts from animals treated for 28 days
Protocol: Fatty acid oxidation (FAO) was determined by ^14C-labeled CO2 capture from tissue homogenates using a method modified from Dohm et al.. Following treatment with either vehicle or a PPAR agonist, livers from fed mice were surgically removed and a section excised from the same lobe. The tissue was immediately weighed, minced with scissors and placed in tubes (Falcon #2063) on ice. Cold SET buffer (250 mM Sucrose, 1 mM EDTA, 10 mM Tris, pH 7.4) was added at a ratio of 10 mL SET:1 gram of tissue and the tissue homogenized on ice for 15 sec using a hand-held homogenizer (Polytron PT1200; Kinematica AG). The homogenates remained on ice until assayed.
The labeled reaction buffer was prepared by first drying ^14C-oleic acid (0.5 μCi/reaction; PerkinElmer #NEC-317) under nitrogen. The dried fraction is re-suspended in unlabeled oleic acid such that the final concentration of oleic acid in the reaction buffer was 0.2 mM. BSA was added slowly while mixing to a final concentration of 0.5% and the mixture was incubated at 37°C for 15 minutes. The labeled cocktail was then added to the reaction buffer to give a produce concentration of 100 mM sucrose, 10 mM Tris pH 7.4, 4 mM ATP, 0.05 mM Coenzyme A, 0.1 mM malic acid, 1 mM magnesium chloride, 80 mM potassium chloride, 5 mM potassium phosphate, 0.2 mM EDTA, and 2 mM L-carnitine, as described previously.
Oxidation reactions were performed in tubes (Falcon #352059) fitted with a stopper top (KONTES Glass Co., #882310-0000), center well (KONTES #882320-0000), and filter (Socorex #322.02) soaked with 175 μL of 1N NaOH. 100 μL of homogenate was dispensed into each tube and the reactions initiated by adding 400 μL of reaction buffer. The tubes were quickly capped and incubated with gentle shaking for 60 minutes in a 37°C water bath. After incubation, the filters were removed, from the tubes, placed in 7 mL of scintillant, and counted for 2 minutes (PerkinElmer Tri-Carb 3100TR). The oxidative activity of each compound was calculated as nmole CO2 captured/gram tissue/hour and reported as fold change relative to vehicle control.
(§1) On the final day of each experiment, a terminal blood sample (800–1000 μL) was obtained via cardiac puncture under isoflurane anesthesia. Whole blood was placed in a Terumo Capiject blood collection tube (Terumo Medical Corp., Elkton, Md, USA), allowed to sit at room temperature for 20 minutes then centrifuged to obtain serum. Serum levels of glucose, triglycerides, glycerol, nonesterified fatty acids, total cholesterol, the high-density lipoprotein cholesterol, and β-hydroxybutyrate were determined in all mice using an Olympus AU640 clinical chemistry immuno-analyzer (Olympus America Inc., Melville, NY, USA). In addition, liver weights were obtained following the terminal blood sample on the final day of the study and samples were used to determine liver fatty acid oxidation activity.

[2] = tested on: diet-induced obese (DIO) AKR/J mouse; experiment: Serum clinical chemistry of terminal blood samples, DIO AKR/J mice; format: in vivo; settings: for Cholesterol / Glucose / HDL-C / Insulin / NEFA / Triglyceride / bHBA: serum, end of treatment, 28 days; for effect on serum chemistry (in words): terminal serum after 28 days
Protocol: as §1

[3] = tested on: diet-induced obese (DIO) AKR/J mouse; experiment: Body weight, body composition (qMR) and liver weight in diet-induced obese AKR/J mice; format: in vivo; settings: for BW day 28 / effect on FM (in words) / effect on LM (in words) / increase in liver weight / effect on BW (in words) / Fat mass day 28 / Lean mass day 28 / Liver weight: 28 days; for effect on FM (in words) / effect on LM (in words): doses as in methods; for increase in liver weight: PPARα agonist 1 mg/kg or PPARδ agonist 30 mg/kg alone; for BW day 0: baseline before treatment; for effect on BW (in words): oral, GW9578 1, GW0742 30, GW7845 3, RIM 10 and 30 mg/kg, PPARpan agonists; for Fat mass day 28 / Lean mass day 28: qMR; for Liver weight: terminal collection
Protocol: The effects of monotherapy with selective PPAR agonists, combination therapy with PPARα and PPARδ, and treatment with PPARpan agonists were evaluated in four experiments in diet-induced obese (DIO) AKR/J mouse. The AKR/J mouse is a polyoma-susceptible strain originally utilized to study accelerated tumor development. This strain becomes obese and hyperinsulemic when fed a high fat diet. Age-matched, male AKR/J mice were allowed ad libitum access to Research Diet D12331 (Research Diet, Brunswick, NJ) at the Jackson Laboratories (Bar Harbor, ME) beginning at 6 weeks of age. The diet has an energy density of 5.56 kcal/g (58% kcal from fat; 26% kcal from carbohydrates, and 16% kcal from protein). The animals were allowed to become obese, achieving BW >40 grams before shipping to GlaxoSmithKline laboratory animal facility at 13 weeks of age. The mice were housed 4 per cage in standard shoebox cages and were fed the high fat diet until they reached approximately 50 grams. Age-matched lean control animals obtained from Jackson Laboratories were fed a diet of normal chow (3.04 kcal/g energy density, 12% kcal from fat, LabDiet 5001, St. Louis, MO) and used for comparison.
At the beginning of each study, the animals were weighed and body composition obtained using an EchoMRI-100 quantitative magnetic resonance (qMR, EchoMRI, Houston, TX) whole body composition analyzer. […] 16 lean control mice on standard chow were used as reference. All mice were dosed orally with vehicle (0.5% methylcellulose and 0.1% Tween 80, 10 mL/kg) for six days prior to the beginning of dosing for acclimation to handling and treatment before drug treatment was initiated.
In each experiment, BW of each animal was measured and recorded three times weekly throughout the treatment period. Body mass was obtained weekly on days 0, 7, 13, 20, and 27 of treatment. The effects of selective PPARα, δ, and γ agonists on food consumption were also assessed. Food consumption is expressed as total energy consumed (kcal) over a 24-period and as cumulative consumption over the course of the experiment.
as §1
Experiment 1 was designed to study the effects of a selective PPARα agonist and PPARδ agonist as mono and combination therapy. 48 mice were sorted into 6 groups and blocked such that initial BW and body composition were not different between groups. […] Two additional groups of mice were dosed for the first 14 days with either a PPARα agonist or a PPARδ agonist alone. At day 15, the PPARδ agonist was added to the treatment regimen of animals dosed with PPARα, and the PPARα agonist was added to the dosing material of animals previously dosed with PPARδ alone. The sixth group was dosed with both the PPARα and PPARδ agonists for the entire 28-day period. BW and food consumption were assessed 3 times per week and body composition was measured weekly.
In Experiment 2, 32 mice were sorted into 4 groups (n = 8/group) and dosed with vehicle and a selective PPARγ agonist (GW7845, 3 mg/kg) for 28 days. Rimonabant (RIM, 10 or 30 mg/kg, q.d.), a CB1 receptor antagonist, was used as a positive control for weight loss. […]

Cc1cc(SCc2sc(-c3ccc(C(F)(F)F)c(F)c3)nc2C)ccc1OCC(=O)O [GW0742]
effect on liver FAO (in words) [1]: significant increase in liver FAO
increase in FAO ([1]; relative to vehicle control): 1.9 fold
Cholesterol ([2]; 30 mg/kg oral): 171.9 ± 2.9 mg/dL
Glucose ([2]; 30 mg/kg oral): 253.3 ± 8.9 mg/dL
HDL-C ([2]; 30 mg/kg oral): 118.4 ± 1.6 mg/dL
Insulin ([2]; 30 mg/kg oral): 2.2 ± 1.2 ng/mL
NEFA ([2]; 30 mg/kg oral): 0.9 ± 0.02 mEq/L
Triglyceride ([2]; 30 mg/kg oral): 174.9 ± 10.3 mg/dL
bHBA ([2]; 30 mg/kg oral): 3.8 ± 0.3 mg/dL
effect on serum chemistry (in words) [2]: significantly reduced circulating insulin (INS) levels
BW day 28 ([3]; 30 mg/kg oral): 50.2 ± 1.2 grams
effect on FM (in words) [3]: slight decrease in FM
effect on LM (in words) [3]: LM was unaffected
increase in liver weight [3]: ~1 gram
BW day 0 ([3]; group dosed 30 mg/kg oral): 51.6 ± 1.1 grams
effect on BW (in words) [3]: neither compound induced a sustained decrease in BW
Fat mass day 28 ([3]; 30 mg/kg oral): 18.4 ± 0.7 grams
Lean mass day 28 ([3]; 30 mg/kg oral): 29.7 ± 0.7 grams
Liver weight ([3]; 30 mg/kg oral): 3.2 ± 0.1 grams

COC(=O)c1ccccc1N[C@@H](Cc1ccc(OCCc2nc(-c3ccccc3)oc2C)cc1)C(=O)O [GW7845]
effect on liver FAO (in words) [1]: no effect on FAO in mouse liver
effect on liver FAO (in words) ([1]; listed as PPARγ agonist): not different from vehicle
Cholesterol ([2]; 3 mg/kg oral): 106.1 ± 4.2 mg/dL
Glucose ([2]; 3 mg/kg oral): 222.3 ± 9.4 mg/dL
HDL-C ([2]; 3 mg/kg oral): 65.0 ± 0.9 mg/dL
Insulin ([2]; 3 mg/kg oral): 2.1 ± 0.4 ng/mL
NEFA ([2]; 3 mg/kg oral): 0.6 ± 0.03 mEq/L
Triglyceride ([2]; 3 mg/kg oral): 112.3 ± 5.7 mg/dL
bHBA ([2]; 3 mg/kg oral): 1.5 ± 0.1 mg/dL
effect on serum chemistry (in words) [2]: significant reduction in circulating INS, TG, and NEFA levels
BW day 28 ([3]; 3 mg/kg oral): 54.6 ± 1.7 grams
effect on FM (in words) [3]: significant increase in FM
BW day 0 ([3]; group dosed 3 mg/kg oral): 50.9 ± 1.2 grams
effect on BW (in words) [3]: steady and consistent increase in BW
Fat mass day 28 ([3]; 3 mg/kg oral): 23.5 ± 1.3 grams
Lean mass day 28 ([3]; 3 mg/kg oral): 28.7 ± 0.6 grams
Liver weight ([3]; 3 mg/kg oral): 2.0 ± 0.1 grams

CCCCCCCN(CCc1ccc(SC(C)(C)C(=O)O)cc1)C(=O)Nc1ccc(F)cc1F [GW9578]
effect on liver FAO (in words) [1]: not different from vehicle
Cholesterol ([2]; 1 mg/kg oral): 117.1 ± 4.1 mg/dL
Glucose ([2]; 1 mg/kg oral): 248.0 ± 16.6 mg/dL
HDL-C ([2]; 1 mg/kg oral): 86.6 ± 2.7 mg/dL
Insulin ([2]; 1 mg/kg oral): 3.1 ± 1.6 ng/mL
NEFA ([2]; 1 mg/kg oral): 0.9 ± 0.04 mEq/L
Triglyceride ([2]; 1 mg/kg oral): 168.3 ± 15.4 mg/dL
bHBA ([2]; 1 mg/kg oral): 3.2 ± 1.1 mg/dL
effect on serum chemistry (in words) [2]: significantly reduced circulating insulin (INS) levels
BW day 28 ([3]; 1 mg/kg oral): 51.3 ± 1.6 grams
effect on FM (in words) [3]: slight decrease in FM
effect on LM (in words) [3]: LM was unaffected
increase in liver weight [3]: ~1 gram
BW day 0 ([3]; group dosed 1 mg/kg oral): 52.1 ± 1.1 grams
effect on BW (in words) [3]: neither compound induced a sustained decrease in BW
Fat mass day 28 ([3]; 1 mg/kg oral): 18.4 ± 0.9 grams
Lean mass day 28 ([3]; 1 mg/kg oral): 30.9 ± 0.8 grams
Liver weight ([3]; 1 mg/kg oral): 2.6 ± 0.1 grams
